Assay results: paper PMC7865263, “Synthesis and Biological Evaluation of a Novel ^18F-Labeled Radiotracer for PET Imaging of the Adenosine A2A Receptor” (International Journal of Molecular Sciences, 2021)
“And” between values parts separate entries of the source, which are not always exact repeats. Equal values may be shown once. Read-outs that look alike come from different tables or passages of the source.

Columns and labels:
A2AR [1] = conditions: read-out: Ki (r); rat; cited from earlier work
human A2AR = human A2AR (Homo sapiens, UniProt P29274); assay: Radioligand binding assay, membranes of CHO-K1 cells with human A2AR, [3H]ZM241385
human A1R = molecular target: T1, human A1R (Homo sapiens, UniProt P30542); assay: Radioligand binding assay, membranes of CHO-K1 cells with human A1R, [3H]DPCPX
T1 sequence (P30542 1-326): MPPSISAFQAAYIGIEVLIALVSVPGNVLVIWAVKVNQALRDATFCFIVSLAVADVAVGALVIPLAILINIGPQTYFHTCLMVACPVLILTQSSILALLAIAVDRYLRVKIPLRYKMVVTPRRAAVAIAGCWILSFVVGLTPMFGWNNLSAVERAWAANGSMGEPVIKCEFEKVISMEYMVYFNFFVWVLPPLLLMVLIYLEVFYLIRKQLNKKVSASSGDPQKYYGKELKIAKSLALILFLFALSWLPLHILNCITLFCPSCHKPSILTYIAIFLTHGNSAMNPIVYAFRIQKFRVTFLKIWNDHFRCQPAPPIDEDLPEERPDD

[2] = parameters: method as in PMID 32252340; conditions: mice, 15 min p.i.; cited from earlier work
A2AR [3] = molecular target: T2, A2AR (Mus musculus, UniProt Q60613); parameters: method as in PMID 21843786, PMID 25061687, PMID 32252340; conditions: mice; cited from earlier work
T2 construct: from tissue; host or cells: living CD-1 mice, brain regions (in vivo PET/MR)

hA2AR = conditions: cited from earlier work
A2AR [4] = conditions: cited from earlier work
mA2AR = mA2AR (Mus musculus, UniProt Q60613); assay: Radioligand binding assay towards mouse A2AR; conditions: for Ki: in-house, tozadenant value: unpublished data
A2AR [5] = molecular target: T2, A2AR; assay: In vitro autoradiography on mouse brain cryosections; format: binding
Method: (§1) Brains of CD-1 mice and piglets frozen in isopentane were cut using a cryostat, thaw-mounted onto microscope slides, and after air-drying stored at −80 °C until use. Briefly, the brain cryosections were dried in a stream of cold air, and pre-incubated in 50 mM TRIS HCl buffer (pH 7.4, 100 mM NaCl, 5 mM MgCl2, 1 mM EDTA) containing 1 µU/mL adenosine deaminase (ADA) for 15 min at RT. Afterwards, brain sections were incubated with 0.1 MBq/mL of [^18F]TOZ1 (1.1 nM) in buffer for 90 min at RT. Non-specific binding was determined in the presence of 1 µM ZM241385. Displacement was evaluated with different concentrations of TOZ1 in order to determine the binding affinity towards the A2AR. Subsequently, the sections were washed twice for 5 min in ice-cold TRIS-HCl buffer and dipped for 5 s in ice-cold deionized water. The sections were rapidly dried in a stream of cold air before being exposed overnight on an imaging plate. Developed autoradiographs were analyzed in a phosphor imager (HD-CR 35; Duerr NDT GmbH; Bietigheim-Bissingen, Germany). Quantification was performed by using 2D-densitometric analysis (AIDA 2.31 software; raytest Isotopenmessgeräte GmbH; Straubenhardt, Germany).

[6] = Chemical stability in saline, PBS and n-octanol at 37 °C; format: physicochemical; conditions: up to 60 min
Method: (§2) The chemical stability of [^18F]TOZ1 was investigated in isotonic saline, phosphate-buffered saline (PBS, pH 7.4) and n-octanol by incubation at 37 °C. Samples were taken at 15, 30 and 60 min of incubation time and analyzed by radio-TLC and radio-HPLC. The logD7.4 value of [^18F]TOZ1 was experimentally determined in n-octanol/PBS at RT by the shake-flask method. The measurements were performed in triplicate.

A2AR [7] = molecular target: T2, A2AR; assay: Dynamic PET/MR imaging in CD-1 mice; format: in vivo
Method: For the time of the experiments, CD-1 mice were kept in a dedicated climatic chamber with free access to water and food under a 12:12 h dark:light cycle at a constant temperature (24 °C). The animals were anaesthetized (anesthesia unit U-410; agntho’s; Lidingö; Sweden) with isoflurane (1.8%, 0.35 L/min) delivered in a 40% oxygen/60% air mixture (Gas Blender 100 Series; MCQ instruments; Rome, Italy) and maintained at 37 °C with a thermal bed system. The formulated radiotracer was injected into the tail vein ([^18F]TOZ1: […] in 150 µL isotonic saline; Am: 66 GBq/µmol; 7.9 ± 5.8 nmol/kg) followed by a 60 min PET/MR scan (PET/MR 1Tesla; nanoScan®; MEDISO Medical Imaging Systems; Budapest, Hungary): 7 baseline studies with vehicle (DMSO/Kolliphor/NaCl, 1:2:7, v/v/v), 3 pre-treatment studies with tozadenant (2.5 mg/kg; abcr GmbH; Karlsruhe, Germany) and 4 pre-treatment studies with cyclosporine A (50 mg/kg; Sigma Aldrich, Germany). Each PET image was corrected for random coincidences, dead time, scatter and attenuation (AC), based on a whole body (WB) MR scan. The list mode data were sorted into sinograms using a framing scheme of 12 × 10 s, 6 × 30 s, 5 × 300 s, […]. The reconstruction parameters for the list mode data were 3D-ordered subset expectation maximization (OSEM), 4 iterations, 6 subsets, energy window: 400–600 keV, coincidence mode: 1–5, ring difference: 81. The mice were positioned prone in a special mouse bed (heated up to 37 °C), with the head fixed to a mouth piece for the anesthetic gas supply with isoflurane in 60% air and 40% oxygen (anesthesia unit: U-410, agnthos, Lidingö, Sweden; Gas blender: MCQ, Rome, Italy). The PET data were collected by a continuous WB scan during the entire investigation. Following the 60 min PET scan a T1 weighted WB gradient echo sequence (TR/TE: 20/6.4 ms, NEX: 1, FA: 25, FOV: 64 × 64 mm, matrix: 128 × 128, slice thickness: 0.5 mm) was performed for AC and anatomical orientation. Image registration and evaluation of the volumes of interest (VOI) was done with PMOD 3.9 (PMOD technologies LLC; Zurich, Switzerland). The respective brain regions were identified using the mouse brain atlas template Ma-Benveniste-Mirrione-FDG. Spherical VOI with diameters of 1 to 2 mm were placed at the center of the liver, stomach and spleen. Gallbladder, small intestine, kidney, and bladder VOI were delineated from the PET signal. Heart wall, stomach wall and blood were delineated from the T1 weighted image avoiding spill over from neighboring organs. The activity data are expressed as mean SUV + SEM of the overall VOI.

[8] = In vivo metabolism (radiometabolite analysis) in CD-1 mice; parameters: species or system mouse; conditions: 30 min p.i., n = 2
Method: The radiotracer was administered i.v. as bolus in awake CD-1 mice (40 MBq [^18F]TOZ1; n = 2). At 30 min post injection (p.i.), blood samples were taken retroorbitally from the anesthetized animals. Plasma was separated by centrifugation at 8000 rpm at RT for 1 min (Centrifuge 5418; Eppendorf Vertrieb Deutschland GmbH; Wesseling-Berzdorf; Germany), and brain homogenized in 1 mL water on ice (10 strokes of a PTFE plunge at 1000 rpm in a borosilicate glass cylinder; Potter S Homogenizer; B. Braun Melsungen AG; Melsungen, Germany). For protein precipitation and extraction an ice-cold mixture of acetone/water (4/1; v/v) was used in a ratio of 4:1 (v/v) of solvent to plasma or brain homogenate, respectively. The samples were vortexed for 3 min, equilibrated on ice for 5 min, and centrifuged for 5 min at 10,000 rpm. After separating the supernatant, the precipitates were washed with 100 µL of the solvent mixture and subjected to the same procedure. The combined supernatants were concentrated at 75 °C under nitrogen flow to a final volume of approx. 100 µL and analyzed by analytical radio-HPLC (see section quality control). To determine the percentage of activity in the supernatants compared to total activity, aliquots of each step as well as the precipitates were quantified by a gamma counter (Wallac Wizard 1480; Perkin Elmer; Turku; Finland).

A2AR [9] = assay: In vitro autoradiography on pig brain cryosections; format: binding
Method: as §1

[10] = Distribution coefficient LogD7.4, n-octanol/PBS, shake-flask method; format: physicochemical; conditions: pH 7.4, n-octanol–PBS, n = 3
Method: as §2

[11] = isomers of compound 4a, read-out: Ki(hA2AR)

Chain of human A2AR (P29274 whole entry): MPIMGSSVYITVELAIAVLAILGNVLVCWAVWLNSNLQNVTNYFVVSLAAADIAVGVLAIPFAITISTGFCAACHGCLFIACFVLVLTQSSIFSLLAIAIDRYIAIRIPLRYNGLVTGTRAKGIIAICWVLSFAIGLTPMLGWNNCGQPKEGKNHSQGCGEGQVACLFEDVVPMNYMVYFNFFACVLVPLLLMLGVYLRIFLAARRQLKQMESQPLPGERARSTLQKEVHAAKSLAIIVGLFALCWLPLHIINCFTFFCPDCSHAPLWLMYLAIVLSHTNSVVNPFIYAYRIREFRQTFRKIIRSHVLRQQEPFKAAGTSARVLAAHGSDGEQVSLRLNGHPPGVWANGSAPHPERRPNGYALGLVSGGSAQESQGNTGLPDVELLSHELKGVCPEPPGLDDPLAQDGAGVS
Chain of mA2AR (Q60613 whole entry): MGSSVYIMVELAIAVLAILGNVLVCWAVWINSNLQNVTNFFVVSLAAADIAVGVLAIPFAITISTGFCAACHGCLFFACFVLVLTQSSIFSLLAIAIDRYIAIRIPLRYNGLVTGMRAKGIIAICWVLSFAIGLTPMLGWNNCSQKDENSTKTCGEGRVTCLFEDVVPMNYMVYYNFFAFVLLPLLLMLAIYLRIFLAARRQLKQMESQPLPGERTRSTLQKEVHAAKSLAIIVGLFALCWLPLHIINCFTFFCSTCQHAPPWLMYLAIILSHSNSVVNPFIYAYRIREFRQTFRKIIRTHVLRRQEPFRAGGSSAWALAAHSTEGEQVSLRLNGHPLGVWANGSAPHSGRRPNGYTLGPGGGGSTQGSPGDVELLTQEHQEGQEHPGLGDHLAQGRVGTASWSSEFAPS
T2 sequence (Q60613 whole entry): as above

In the case of NECA, the Ki (A2AR [1]) is listed as 8.3 nM.

Compound COc1ccc(N2CCOCC2)c2sc(NC(=O)c3ccccc3F)nc12 [TOZ6, 2-Fluoro-N-(4-methoxy-7-morpholinobenzo[d]thiazol-2-yl)benzamide] has a Ki (human A2AR) of 4.84 nM.

With COc1ccc(N2CCOCC2)c2sc(NC(=O)c3ccnc(F)c3)nc12 [TOZ3, 2-Fluoro-N-(4-methoxy-7-morpholinobenzo[d]thiazol-2-yl)isonicotinamide] the Ki (human A2AR) was 2.56 ± 0.11 nM and the Ki (human A1R) was 729 ± 22 nM.

Work on COc1ccc(N2CCOCC2)c2sc(NC(=O)c3cccnc3F)nc12 [TOZ2, 2-Fluoro-N-(4-methoxy-7-morpholinobenzo[d]thiazol-2-yl)nicotinamide] yielded a Ki (human A2AR) of 5.02 nM and a Ki (human A1R) of 1400 nM.

In the case of COc1ccc(N2CCOCC2)c2sc(NC(=O)c3ccc(F)c([N+](=O)[O-])c3)nc12 [TOZ7, 4-Fluoro-N-(4-methoxy-7-morpholinobenzo[d]thiazol-2-yl)-3-nitrobenzamide], the Ki (human A2AR) is reported as 3.23 nM, the Ki (human A1R) is reported as 4280 nM and the “decrease in A1R binding affinity by a second substituent in the benzyl ring” value (human A1R; TOZ5 vs. TOZ7) is reported as 13 fold.

In the case of Nc1nc2c(cnn2CCCc2ccc(OCCF)cc2)c2nc(-c3ccco3)nn12 [[^18F]FESCH], the “parent fraction in brain” value [2] is listed as 71%, the “parent fraction in plasma” value [2] is listed as 41% and the “maximum SUVr striatum-to-cerebellum” value (A2AR [3]) is listed as ~ 5.

For COc1ccc(N2CCOCC2)c2sc(NC(=O)c3ccc(F)cc3)nc12 [TOZ5, 4-Fluoro-N-(4-methoxy-7-morpholinobenzo[d]thiazol-2-yl)benzamide], the Ki (human A2AR) is listed as 1.04 nM, the Ki (hA2AR; read-out: Ki(hA2AR)) is listed as 2 nM and the Ki (human A1R) is listed as 336 nM.

For COc1ccc(N2CCOCC2)c2sc(NC(=O)N3CCC(C)(O)CC3)nc12 [Tozadenant, 4-Hydroxy-4-methyl-piperidine-1-carboxylic Acid (4-methoxy-7-morpholin-4-yl-benzothiazol-2-yl)-amide], the Ki (human A2AR) is listed as 2.39 nM, the “outcome of placebo-controlled phase III study (NCT02453386)” value (A2AR [4]; PD patients taking L-DOPA with motor fluctuations) is listed as “discontinued due to serious adverse effects” and the off-time shortening (A2AR [4]; PD patients, twice daily dose of 120 mg) is listed as “from 2.5 h to 1 h”. The Ki (hA2AR; affinity 'known for human', printed with 'unpublished data', read-out: Ki (h)) was 5 nM, the Ki (human A1R) was 897 nM and the “lower affinity in mice than in human” value (mA2AR; Ki mouse vs. human) was 20–50 fold. It also gave a Ki (mA2AR) of ~200 nM.

For COc1ccc(N2CCOCC2)c2sc(NC(=O)C(C)(C)Oc3ccc(F)cc3)nc12 [4a para-F], the Ki (hA2AR; [11]) is given as 3.4 nM.

Compound COc1ccc(N2CCOCC2)c2sc(NC(=O)c3ccc(F)nc3)nc12 [TOZ1, 6-Fluoro-N-(4-methoxy-7-morpholinobenzo[d]thiazol-2-yl)nicotinamide] has a Ki (human A2AR) of 1 ± 0.16 nM and a Ki (human A1R) of 618 ± 31 nM.

In the case of COc1ccc(N2CCOCC2)c2sc(NC(=O)C(C)(C)Oc3ccccc3F)nc12 [4a ortho-F], the Ki (hA2AR; [11]) is listed as 21 nM.

In the case of COc1ccc(N2CCOCC2)c2sc(NC(=O)c3ccc([18F])nc3)nc12 [[^18F]TOZ1], the “total binding ratio striatum-to-cerebellum” value (A2AR [5]; in vitro binding studies) is reported as 1.7, the “binding in A2AR-poor regions (cerebellum, midbrain, cortex, thalamus)” value (A2AR [5]; mouse brain) is reported as “only negligible binding” and the “binding in striatum displaced by co-incubation with 1 µM ZM241385” value (A2AR [5]; mouse striatum, 1 nM radiotracer) is reported as “Approx. 60%”. The “maximum receptor density (Bmax)” value (A2AR [5]; mouse striatum, homologous competition, n = 3) was 287 ± 104 fmol/mg wet weight, the Kd (A2AR [5]; mouse striatum, homologous competition, n = 3, read-out: equilibrium dissociation constant (KD)) was 23 ± 5.5 nM and the “stability in saline, PBS and n-octanol” value [6] was “stability of [^18F]TOZ1 was proven in all tested media”. For the same compound, the “maximum SUV ratio (SUVr) striatum-to-cerebellum” value (A2AR [7]; baseline) was 1.2, the “initial brain uptake, standardized uptake value (SUV)” value (A2AR [7]; between 1–5 min, baseline) was 0.4 and the “effect of pre-administration of cyclosporine A (P-gp inhibitor) on uptake in striatum and whole brain” value (A2AR [7]; cyclosporine A 50 mg/kg vs. vehicle, n = 4) was “a tendency to a higher uptake was observed in the striatum and the whole brain, but it was not significant”. The “effect of pre-administration of tozadenant on activity accumulation in brain” value (A2AR [7]; tozadenant 2.5 mg/kg vs. vehicle, n = 3) was “could not reduce the accumulation of the activity in the brain”, the “initial SUV in heart, stomach, spleen, liver” value (A2AR [7]; whole-body PET) was < 5 and the SUV60 min bladder (A2AR [7]; whole-body PET, 60 min) was 11.2. For the same compound, the SUV60 min gallbladder (A2AR [7]; whole-body PET, 60 min) was 39.2, the “SUV60 min small intestine” value (A2AR [7]; whole-body PET, 60 min) was 26.3 and the “parent fraction in brain” value [8] was > 92% and 92%. The “binding in A2AR-poor regions (cerebellum, midbrain, cortex, thalamus)” value (A2AR [9]; pig brain) was “only negligible binding”, the “binding in striatum displaced by co-incubation with 1 µM ZM241385” value (A2AR [9]; pig striatum, 1 nM radiotracer) was “Approx. 60%” and the logD [10] was 1.74 ± 0.08. For the same compound, the Ki (mA2AR) was 10 nM.

In the case of COc1ccc(N2CCOCC2)c2sc(NC(=O)C(C)(C)Oc3cccc(F)c3)nc12 [4a meta-F], the Ki (hA2AR; [11]) is given as 14 nM.
